This experiment addresses T1, hFAAH (Homo sapiens, UniProt O00519).
T1 construct: expressed in transfected cells; host or cells: HEK293-TRex (Invitrogen) stably transfected with hFAAH in the pcDNA5-Tet-off vector, or T84 human colon epithelial cells (endogenous hFAAH); used as a microsomal preparation
T1 sequence (O00519 1-579): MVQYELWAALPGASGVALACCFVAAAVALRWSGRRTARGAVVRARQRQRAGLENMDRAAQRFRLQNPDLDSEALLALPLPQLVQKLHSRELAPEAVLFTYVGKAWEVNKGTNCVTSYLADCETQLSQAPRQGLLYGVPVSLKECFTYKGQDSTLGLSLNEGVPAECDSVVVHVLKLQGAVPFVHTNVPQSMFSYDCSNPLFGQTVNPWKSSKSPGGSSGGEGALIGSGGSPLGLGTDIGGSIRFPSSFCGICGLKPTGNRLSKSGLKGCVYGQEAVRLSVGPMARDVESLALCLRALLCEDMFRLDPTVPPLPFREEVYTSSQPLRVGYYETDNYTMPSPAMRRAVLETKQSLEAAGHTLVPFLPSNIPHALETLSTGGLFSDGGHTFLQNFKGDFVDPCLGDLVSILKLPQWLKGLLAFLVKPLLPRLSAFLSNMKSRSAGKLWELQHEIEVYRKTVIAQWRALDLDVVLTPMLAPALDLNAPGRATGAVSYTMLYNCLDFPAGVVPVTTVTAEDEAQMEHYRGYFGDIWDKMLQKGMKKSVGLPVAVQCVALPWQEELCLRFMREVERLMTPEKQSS
The experiment in a line: Fluorimetric assay with hFAAH microsomes (enzymatic, fluorescence based). In kind it is biochemical. The conditions noted are these: compound at 1 uM, AA-AMC substrate. As for the experimental part:
Human cell line T84 (human colon epithelial cells), which expresses endogenous hFAAH, or HEK293-TRex cells (Invitrogen) stably transfected with hFAAH in the pcDNA5-Tet-off vector are cultured in medium containing DMEM, 10% FBS penicillin/streptomycin, glutamax, 200 μg/ml hygromycin and 0.5 μg/ml blasticidin. Cell collection is done 24 h after induction with doxycycline by first washing the cells with cold PBS and then incubating them with Versene before centrifugation. Cell pellets are then stored at −80° C. until needed. For homogenization, the cell pellets are thawed on ice […] and resuspended in homogenization buffer (50 mM HEPES (pH 7.4), 1 mM EDTA, 1 μM Pepstatin A, 100 μM Leupeptin, 0.1 mg/mL aprotinin). Cell suspensions are then homogenized on ice using the Polytron 1200 C at setting 6 for three 30-second intervals with 30-second rests. The suspension is centrifuged at 1000 g for 10 minutes at 4° C. and the supernatant is collected and further centrifuged at 24000 rpm for 30 minutes at 4° C. using an ultracentrifuge. Pellets are resuspended by adding in cold microsomal buffer (50 mM HEPES (pH 7.4) and 1 mM EDTA) and sheared through a 23-gauge needle five times, keeping the suspension on ice. Protein concentrations are determined using the BCA assay and aliquoted preparations are stored at −80° C. until needed.
Compound potency against hFAAH is determined using an enzymatic assay with a fluorescence readout. Briefly, experiments were carried out in a 96-well plate format (Corning Costar, # 3370) with a total well volume of 160 μL with components added in the following order: assay buffer (50 mM HEPES (pH 7.4), 1 mM EDTA, 1.4 mg/mL BSA), compound solutions (7 different concentrations per compound in duplicate), microsomal enzyme preparation (10 μg per well) and substrate [AA-AMC (arachadonyl 7-amino 4-methyl coumarin amide), 2 μM]. After a brief shaking, a kinetic read of the plate is obtained using a Tecan Safire II in kinetic mode for 275 cycles with excitation and emission wavelengths of 355 and 460 nm, respectively. Raw data is then processed and analyzed using Assay Explorer and GraphPad Prism.
The following compounds have been or can be prepared according to the methods of the invention. An enzymatic (fluorescence based) assay is performed as described above. In Table 1, activity of each compound is expressed as follows: • ++++ % Inhibition >75% • +++ % Inhibition >50% • ++ % Inhibition >25% • + % Inhibition <25%

Here are results for 28 compounds from patent publication US20110257208A1, “COMPOUNDS USEFUL AS FAAH MODULATORS AND USES THEREOF” (priority 2008, published 2011).

Bounds are passed on as bounds.

What is called inhibition is the drop in the measured response relative to a control, in per cent. A low value points to a response near the control. The compound `FC(F)(F)c1cccc(CN2Cc3ncnc(Nc4cnc5ccccc5c4)c3C2)c1` [Compound 99, Quinolin-3-yl-[6-(3-trifluoromethyl-benzyl)-6,7-dihydro-5H-pyrrolo[3,4-d]pyrimidin-4-yl]-amine] had an inhibition at 1 µM of more than 75%.

On to `Cc1ncccc1CN1Cc2ncnc(Nc3cnc4ccccc4c3)c2C1` [Compound 17, [6-(2-Methyl-pyridin-3-ylmethyl)-6,7-dihydro-5H-pyrrolo[3,4-d]pyrimidin-4-yl]-quinolin-3-yl-amine], for which the inhibition at 1 µM was more than 75%. As to `O=S(=O)(C1CCCC1)N1Cc2ncnc(Nc3cnc4ccccc4c3)c2C1` [Compound 57, (6-Cyclopentanesulfonyl-6,7-dihydro-5H-pyrrolo[3,4-d]pyrimidin-4-yl)-quinolin-3-yl-amine], the inhibition at 1 µM is more than 25%.

In turn, `Fc1cccc(CN2Cc3ncnc(Nc4cnc5ccccc5c4)c3C2)c1F` [Compound 107, [6-(2,3-Difluoro-benzyl)-6,7-dihydro-5H-pyrrolo[3,4-d]pyrimidin-4-yl]-quinolin-3-yl-amine] displayed an inhibition at 1 µM of more than 75%. In turn, `c1ccc2ncc(Nc3ncnc4c3CN(Cc3cscn3)C4)cc2c1` [Compound 75, Quinolin-3-yl-(6-thiazol-4-ylmethyl-6,7-dihydro-5H-pyrrolo[3,4-d]pyrimidin-4-yl)-amine] showed an inhibition at 1 µM of more than 25%. Next, `c1ccc2ncc(Nc3ncnc4c3CN(Cc3cncs3)C4)cc2c1` [Compound 81, Quinolin-3-yl-(6-thiazol-5-ylmethyl-6,7-dihydro-5H-pyrrolo[3,4-d]pyrimidin-4-yl)-amine]: more than 25%. In the case of `CSc1ccccc1CN1Cc2ncnc(Nc3cnc4ccccc4c3)c2C1` [Compound 102, [6-(2-Methylsulfanyl-benzyl)-6,7-dihydro-5H-pyrrolo[3,4-d]pyrimidin-4-yl]-quinolin-3-yl-amine], the inhibition at 1 µM is more than 75%.

In the case of `CCC(CC)CN1Cc2ncnc(Nc3cnc4ccccc4c3)c2C1` [Compound 14, [6-(2-Ethyl-butyl)-6,7-dihydro-5H-pyrrolo[3,4-d]pyrimidin-4-yl]-quinolin-3-yl-amine], the inhibition at 1 µM was more than 75%. As to `O=S(=O)(c1ccc(F)cc1F)N1Cc2ncnc(Nc3cnc4ccccc4c3)c2C1` [Compound 58, [6-(2,4-Difluoro-benzenesulfonyl)-6,7-dihydro-5H-pyrrolo[3,4-d]pyrimidin-4-yl]-quinolin-3-yl-amine], the inhibition at 1 µM was more than 25%.

The compound `CCC(C)N1Cc2ncnc(Nc3cnc4ccccc4c3)c2C1` (stereo not shown) [Compound 35, (6-sec-Butyl-6,7-dihydro-5H-pyrrolo[3,4-d]pyrimidin-4-yl)-quinolin-3-yl-amine] registered an inhibition at 1 µM of less than 25%. Regarding `Cc1nc(C)c(CC(=O)N2Cc3ncnc(Nc4cnc5ccccc5c4)c3C2)s1` [Compound 50, 2-(2,4-Dimethyl-thiazol-5-yl)-1-[4-(quinolin-3-ylamino)-5,7-dihydro-pyrrolo[3,4-d]pyrimidin-6-yl]-ethanone], the inhibition at 1 µM was less than 25%.

`O=S(=O)(c1ccccc1F)N1Cc2ncnc(Nc3cnc4ccccc4c3)c2C1` [Compound 71, [6-(2-Fluoro-benzenesulfonyl)-6,7-dihydro-5H-pyrrolo[3,4-d]pyrimidin-4-yl]-quinolin-3-yl-amine] showed an inhibition at 1 µM of more than 25%. The same measure for `Cc1noc(C)c1CN1Cc2ncnc(Nc3cnc4ccccc4c3)c2C1` [Compound 67, [6-(3,5-Dimethyl-isoxazol-4-ylmethyl)-6,7-dihydro-5H-pyrrolo[3,4-d]pyrimidin-4-yl]-quinolin-3-yl-amine]: more than 25%. The same measure for `CC(C)Oc1ccccc1CN1Cc2ncnc(Nc3cnc4ccccc4c3)c2C1` [Compound 109, [6-(2-Isopropoxy-benzyl)-6,7-dihydro-5H-pyrrolo[3,4-d]pyrimidin-4-yl]-quinolin-3-yl-amine]: more than 50%; for `O=C(NCC1CCCCC1)N1Cc2ncnc(Nc3cnc4ccccc4c3)c2C1` [Compound 46, 4-(Quinolin-3-ylamino)-5,7-dihydro-pyrrolo[3,4-d]pyrimidine-6-carboxylic acid cyclohexylmethyl-amide]: less than 25%. Regarding `Cc1nc(C)c(CNC(=O)N2Cc3ncnc(Nc4cnc5ccccc5c4)c3C2)s1` [Compound 48, 4-(Quinolin-3-ylamino)-5,7-dihydro-pyrrolo[3,4-d]pyrimidine-6-carboxylic acid (2,4-dimethyl-thiazol-5-ylmethyl)-amide], the inhibition at 1 µM was less than 25%. `c1ccc2ncc(Nc3ncnc4c3CN(Cc3nccs3)C4)cc2c1` [Compound 76, Quinolin-3-yl-(6-thiazol-2-ylmethyl-6,7-dihydro-5H-pyrrolo[3,4-d]pyrimidin-4-yl)-amine] displayed an inhibition at 1 µM of more than 25%. Next, `Cc1nc(C)c(NC(=O)N2Cc3ncnc(Nc4cnc5ccccc5c4)c3C2)s1` [Compound 51, 4-(Quinolin-3-ylamino)-5,7-dihydro-pyrrolo[3,4-d]pyrimidine-6-carboxylic acid (2,4-dimethyl-thiazol-5-yl)-amide]: less than 25%. Compound `CN1CCC(CN2Cc3ncnc(Nc4cnc5ccccc5c4)c3C2)CC1` [Compound 27, [6-(1-Methyl-piperidin-4-ylmethyl)-6,7-dihydro-5H-pyrrolo[3,4-d]pyrimidin-4-yl]-quinolin-3-yl-amine] had an inhibition at 1 µM of less than 25%.

Regarding `c1ccc2ncc(Nc3ncnc4c3CN(C3CCC3)C4)cc2c1` [Compound 43, (6-Cyclobutyl-6,7-dihydro-5H-pyrrolo[3,4-d]pyrimidin-4-yl)-quinolin-3-yl-amine], the inhibition at 1 µM was less than 25%.

`c1ccc2ncc(Nc3ncnc4c3CN(C3CCCCCC3)C4)cc2c1` [Compound 40, (6-Cycloheptyl-6,7-dihydro-5H-pyrrolo[3,4-d]pyrimidin-4-yl)-quinolin-3-yl-amine]: the inhibition at 1 µM is more than 25%. As to `O=C(CN1CCCC1)N1Cc2ncnc(Nc3cnc4ccccc4c3)c2C1` [Compound 54, 2-Pyrrolidin-1-yl-1-[4-(quinolin-3-ylamino)-5,7-dihydro-pyrrolo[3,4-d]pyrimidin-6-yl]-ethanone], the inhibition at 1 µM is less than 25%.

In turn, `c1ccc2ncc(Nc3ncnc4c3CN(CC3CC3)C4)cc2c1` [Compound 5, (6-Cyclopropylmethyl-6,7-dihydro-5H-pyrrolo[3,4-d]pyrimidin-4-yl)-quinolin-3-yl-amine] had an inhibition at 1 µM of less than 25%. Compound `c1ccc2ncc(Nc3ncnc4c3CN(CC3CCCOC3)C4)cc2c1` (stereo not shown) [Compound 16, Quinolin-3-yl-[6-(tetrahydro-pyran-3-ylmethyl)-6,7-dihydro-5H-pyrrolo[3,4-d]pyrimidin-4-yl]-amine] returned an inhibition at 1 µM of more than 50%. In the case of `Cc1ncc(CN2Cc3ncnc(Nc4cnc5ccccc5c4)c3C2)s1` [Compound 69, [6-(2-Methyl-thiazol-5-ylmethyl)-6,7-dihydro-5H-pyrrolo[3,4-d]pyrimidin-4-yl]-quinolin-3-yl-amine], the inhibition at 1 µM is more than 50%. Next, `CC(C1CCC1)N1Cc2ncnc(Nc3cnc4ccccc4c3)c2C1` (stereo not shown) [Compound 36, [6-(1-Cyclobutyl-ethyl)-6,7-dihydro-5H-pyrrolo[3,4-d]pyrimidin-4-yl]-quinolin-3-yl-amine]: more than 25%; `CC1(CN2Cc3ncnc(Nc4cnc5ccccc5c4)c3C2)COC1` [Compound 29, [6-(3-Methyl-oxetan-3-ylmethyl)-6,7-dihydro-5H-pyrrolo[3,4-d]pyrimidin-4-yl]-quinolin-3-yl-amine]: more than 25%; `c1ccc2ncc(Nc3ncnc4c3CN(CC3CCC3)C4)cc2c1` [Compound 21, (6-Cyclobutylmethyl-6,7-dihydro-5H-pyrrolo[3,4-d]pyrimidin-4-yl)-quinolin-3-yl-amine]: more than 50%.
